Patent publication US20170327549A1, “Adenylation Enzyme Inhibitors” (Stichting Het Nederlands Kanker Instituut - antoni van …, priority 2014, published 2017)

Molecular target: T1, Uba1 (Homo sapiens, UniProt P22314)
T1 sequence (P22314 1-1058): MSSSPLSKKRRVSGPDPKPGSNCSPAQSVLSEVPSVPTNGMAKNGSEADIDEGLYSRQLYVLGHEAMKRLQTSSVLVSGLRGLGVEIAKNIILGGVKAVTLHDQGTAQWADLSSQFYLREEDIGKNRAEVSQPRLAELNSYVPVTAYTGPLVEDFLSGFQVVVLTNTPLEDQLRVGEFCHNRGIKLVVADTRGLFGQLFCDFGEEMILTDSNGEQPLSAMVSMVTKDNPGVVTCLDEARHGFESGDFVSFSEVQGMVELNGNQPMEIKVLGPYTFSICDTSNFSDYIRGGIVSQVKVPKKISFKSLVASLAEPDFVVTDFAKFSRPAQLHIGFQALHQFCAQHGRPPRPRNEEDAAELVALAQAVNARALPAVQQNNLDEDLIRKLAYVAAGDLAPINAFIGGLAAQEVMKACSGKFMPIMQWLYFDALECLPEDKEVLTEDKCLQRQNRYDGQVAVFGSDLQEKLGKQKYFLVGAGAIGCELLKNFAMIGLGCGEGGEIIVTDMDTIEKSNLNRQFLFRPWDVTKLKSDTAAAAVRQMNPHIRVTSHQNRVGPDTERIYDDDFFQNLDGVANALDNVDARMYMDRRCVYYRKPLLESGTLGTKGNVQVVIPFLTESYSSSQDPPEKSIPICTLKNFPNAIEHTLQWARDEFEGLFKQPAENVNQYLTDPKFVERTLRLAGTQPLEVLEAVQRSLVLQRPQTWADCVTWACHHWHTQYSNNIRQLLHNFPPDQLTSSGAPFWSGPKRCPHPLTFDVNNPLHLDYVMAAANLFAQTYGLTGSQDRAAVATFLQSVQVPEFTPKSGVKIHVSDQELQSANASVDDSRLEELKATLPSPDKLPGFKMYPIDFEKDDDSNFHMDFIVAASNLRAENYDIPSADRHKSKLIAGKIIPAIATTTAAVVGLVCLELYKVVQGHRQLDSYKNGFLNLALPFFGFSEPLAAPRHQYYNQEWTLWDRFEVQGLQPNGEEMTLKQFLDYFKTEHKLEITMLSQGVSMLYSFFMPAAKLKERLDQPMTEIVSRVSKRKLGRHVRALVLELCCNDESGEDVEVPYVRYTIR
Experiment: Peptide inhibitors of Ub-E1 thioester formation
Assay type: biochemical
Method: Peptides VYRFYGG and VYRFYGΔAla of varying concentrations (10, 50, 100, 200, 500, 700, 1000 μM) were incubated with 0.3 μM Uba1 in the presence of 1 mM ATP and 10 mM MgCl2 in TBS buffer (50 mM Tris, 150 mM NaCl, pH=7.5) for 15 min at room temperature. TAMRA-Ub (1 μM) was added to the reaction and samples were taken at two time points, respectively 15 sec and 15 min. The proteins were separated by SDS-PAGE and the TAMRA-Ub-E1 conjugates were visualized using a fluorescence scanner (λex=530 nm; λem=580 nm).

[1] = initial velocities measured at 15 seconds
[2] = reactions allowed to proceed for 15 min

inhibition of (TAMRA-Ub)-E1 formation [1] | inhibition of (TAMRA-Ub)-E1 formation [2] | Substance | inhibitory potency against Uba1 activity relative to VYRFYGG (after 15 min incubation, quantified from gel scanning)
inhibitory effect | prolonged inhibition of the E1 | VYRFYG-ΔAla | higher inhibitory potency against Uba1 activity
inhibitory effect | no detectable inhibition of E1 activity | VYRFYGG [reference compound] | 
